The values below come from publication PMC7115581 (European Journal of Medicinal Chemistry, 2016).

Data set [1] concerns human embryonic lung (HEL) cells. As to conditions: Table 2, concentration that causes a microscopically detectable alteration of morphology.
The nature of data set [2]: Cytotoxicity, inhibition of HEL cell growth. As to conditions: human, human embryonic lung (HEL) cells, CC50, cytotoxic concentration required to reduce HEL cell growth by 50%; 3 days. Format: cell-based, human.
The subject of data set [3] is human embryonic lung (HEL) cells. As to the kind of experiment: Cytotoxicity, inhibition of HEL cell growth. Format: cell-based. As to conditions: for cytotoxic activity (in words): at 100 μM.
Data set [4] deals with varicella-zoster virus (VZV) TK+ OKA strain. Nature of the data set: microbe, parasite or virus in culture. Format: cell-based. Conditions: Human alphaherpesvirus 3, HEL, read-out: EC50 TK+ OKA.
Data set [5] concerns human cytomegalovirus (HCMV) Davis strain. Nature of the data set: microbe, parasite or virus in culture. Format: cell-based. Conditions: Human betaherpesvirus 5, HEL, read-out: Antiviral activity EC50 HMCV Davis.
Data set [6] concerns varicella zoster virus (VZV). As to conditions: for antiviral activity (in words): at 100 μM; for anti-VZV activity (in words): HEL cells.
The subject of data set [7] is varicella zoster virus (VZV). As to the kind of experiment: microbe, parasite or virus in culture. As to conditions: Human alphaherpesvirus 3, HEL, read-out: EC50 against VZV.
The subject of a further data set is HCMV, HSV-1, HSV-2. Format: cell-based. Conditions: HCMV AD-169 and Davis, HSV-1 KOS and TK- KOS ACVr, HSV-2 G; HEL cell cultures.
For data set [8], the system named is varicella zoster virus (VZV). Nature of the data set: in vitro. As to conditions: human.
Data set [9] relates to broad variety of RNA viruses, including HIV-1 and HIV-2, feline coronavirus, vesicular stomatitis virus, Coxsackie virus B4, respiratory syncytial virus …. Format: cell-based.

A word on the CC50: it is the concentration at which the toxic effect on the cells reaches its halfway point. A low value points to greater toxicity to the cells. For the molecule `Nc1nc2c(ncn2COCCO)c(=O)[nH]1` [Acyclovir, acyclovir, reference compound], the “Cytotoxicity MMC” value in [1] is above 250 µM. This molecule registered a CC50 at 3 days in [2] of 224000 nM. The molecule further displayed a CC50 in data set [3] (cytotoxic concentration required to reduce HEL cell growth by 50%, 3 days) of 191000 nM.
For orientation: EC50 means the concentration at which the effect is half-maximal. Regarding `O=c1[nH]c(=O)n([C@H]2C[C@H](O)[C@@H](CO)O2)cc1/C=C/Br` [Brivudin, brivudin, reference compound], the EC50 in [4] was 20 to 30 nM. For the same molecule, the “Cytotoxicity MMC” value in [1] was above 250 µM.
`Nc1ccn(C[C@@H](CO)OCP(=O)(O)O)c(=O)n1.O.O` [Cidofovir, reference compound]: in data set [1], the “Cytotoxicity MMC” value is above 250 µM. In addition, the EC50 in data set [5] worked out at 510 nM.
Turning to `CCCn1cc(C(=O)c2ccc(Cl)cc2)c2ccccc21` [Compound 4a], in data set [1], the “Cytotoxicity MMC” value is above 100 µM. The “antiviral activity (in words)” value in [6] was “do not displayed antiviral or cytotoxic activities”. Also, the “cytotoxic activity (in words)” value in data set [3] was “do not displayed antiviral or cytotoxic activities”.
As for `CCCn1cc(CN2CCCCC2)c2ccccc21` [Compound 4b], the “Cytotoxicity MMC” value in data set [1] is above 100 µM. Moreover, in data set [6], the “antiviral activity (in words)” value is “do not displayed antiviral or cytotoxic activities”. Further, in data set [3], the “cytotoxic activity (in words)” value is “do not displayed antiviral or cytotoxic activities”.
For the molecule `CCCn1cc(CNCCc2ccc(-c3ccccc3)cc2)c2ccccc21` [Compound 4c], the “Cytotoxicity MMC” value in data set [1] turned out to be 4 µM.
`c1ccc(-c2ccc(Cn3cc(CN4CCCCC4)c4ccccc43)cc2)cc1` [Compound 4d]: the “Cytotoxicity MMC” value in data set [1] was determined as 20 µM.
For the molecule `CCCn1cc(CN2CCCCC2)c2cc(CNc3ccc(Cl)cc3)ccc21` [Compound 8a], the “Cytotoxicity MMC” value in [1] worked out at 20 µM.
Still for that read-out and setting: next, `CCCn1cc(CNCCc2ccc(-c3ccccc3)cc2)c2cc(CNc3ccc(Cl)cc3)ccc21` [Compound 8b]: 20 µM.
The same measure, in the same setting: next, `CCCn1cc(CN2CCCCC2)c2cc(NC(=O)c3ccccc3)ccc21` [Compound 8c]: 100 µM; `COC(=O)c1ccc(CNCCc2cn(Cc3ccc(-c4ccccc4)cc3)c3ccccc23)cc1` [Compound 15]: 20 µM; `Cn1cc(CCNCCc2ccc(-c3ccccc3)cc2)c2ccccc21` [Compound 16a]: above 4 µM.
For the molecule `CC(=O)N(CCc1ccc(-c2ccccc2)cc1)CCc1cn(C)c2ccccc12` [Compound 17a], the 50% effective concentration (EC50) in [7] was 1700 to 3600 nM. For the same molecule, in the data set with HCMV, HSV-1, HSV-2, the “activity against other Herpesviridae (in words)” value is “totally inactive”. Also, the “Cytotoxicity MMC” value in data set [1] was found to be 20 µM. The selectivity ratio in [8] is 10 to 20. The “inhibitory activity against RNA viruses (in words)” value in data set [9] is “totally inactive”.
For `CC(=O)N(CCc1cn(C)c2ccccc12)c1ccc2ccccc2c1` [Compound 17d], the “anti-VZV activity (in words)” value in data set [6] is “complete loss of the antiviral activity”.
Take `CC(=O)N(CCc1cn(C)c2ccccc12)c1cccc2ccccc12` [Compound 17e]: in data set [6], the “anti-VZV activity (in words)” value is recorded as “complete loss of the antiviral activity”.
The same measure, in the same setting: next, `CC(=O)N(CCc1cn(C)c2ccccc12)Cc1ccc2ccccc2c1` [Compound 17f]: “complete loss of the antiviral activity”; `CC(=O)N(CCc1cn(C)c2ccccc12)Cc1cccc2ccccc12` [Compound 17g]: “complete loss of the antiviral activity”.
On to `CC(=O)N(CCc1cn(C)c2ccccc12)Cc1ccc(-c2ccccc2)cc1` [Compound 17h], for which the “anti-VZV activity (in words)” value in data set [6] was “complete loss of the antiviral activity”.
The same measure, in the same setting: next, `CC(=O)N(CCc1cn(C)c2ccccc12)Cc1ccc(Oc2ccccc2)cc1` [Compound 17i]: “complete loss of the antiviral activity”; `Cn1cc(CCN(CCc2ccc(-c3ccccc3)cc2)C(=O)C2CCCCC2)c2ccccc21` [Compound 18a]: “annihilation of antiviral activity”; `Cn1cc(CCN(CCc2ccc(-c3ccccc3)cc2)C(=O)CCN2CCOCC2)c2ccccc21` [Compound 18c]: “annihilation of antiviral activity”.
With `Cn1cc(CCN(CCc2ccc(-c3ccccc3)cc2)C(=O)OC(C)(C)C)c2ccccc21` [Compound 18d], the “anti-VZV activity (in words)” value in data set [6] is listed as “annihilation of antiviral activity”.
